Assay results: a melting point compilation (Tetko et al.)

SMILES | melting point [°C]
Cc1cc(Br)cn2c(CO)cnc12 | 174 to 176
O=C(O)c1cc(S(=O)(=O)N2CCOCC2)ccc1F | 201 to 203
Cc1ccc(C)c(-n2nnnc2SCC(=O)O)c1 | 157 to 159
O=C(O)C1CCCN(C(=O)Nc2ccccc2F)C1 (stereo unspecified) | 139 to 141
Cc1c(CC(=O)O)nnn1-c1ccccc1 | 169 to 171
ClCc1coc(-c2ccccc2)n1 | 51 to 55
O=C(CCCCl)c1cc(F)ccc1O | 66 to 68
COC(=O)c1cc(Cl)c2ccccc2n1 | 121 to 123
CN(C)S(=O)(=O)c1cn[nH]c1 | 132 to 134
CCCCNC(=O)Nc1cccc2c1CCCN2 | 173 to 175
Cn1cc(C#N)cc1C(=O)C(Cl)(Cl)Cl | 146 to 148
Cc1coc(-c2cc(N)ccc2C)n1 | 52 to 54
Cn1cncc1C#N | 48 to 50
C=CCN(c1ccccc1Cl)S(=O)(=O)c1cccc(C(=O)O)c1 | 103 to 105
Cc1[nH]nc(C(=O)O)c1[N+](=O)[O-] | 183 to 185
Nc1nc(-c2c(F)cccc2F)co1 | 139 to 141
Cc1ccc(S(=O)(=O)N2CCCC2C(=O)O)cc1 (stereo unspecified) | 96 to 98
CC(C)C(=O)Nc1cc(C(=O)O)c(F)cc1F | 233 to 235
Cc1ccc(NCCc2ccc(Cl)cc2)nn1 | 163 to 165
COC(=O)Cc1csc(N)n1 | 123 to 125
CCN1N=C(C(=O)O)CCC1=O | 147 to 149
COc1cc(C)c(S(=O)(=O)Cl)cc1C | 98 to 100
O=C(CBr)c1cc2cc(Cl)ccc2o1 | 168 to 170
Nn1c(S)nnc1Cc1ccccc1F | 158 to 161
O=C(c1ccccc1)c1ccc(OC(F)F)cc1 | 156 to 158

SMILES | melting point [°C]
O=C(O)c1ccccc1-c1ncc(-c2ccccc2F)o1 | 184 to 186
Cc1nn(-c2ccccc2)c2ncc(C(=O)O)cc12 | 278 to 280
CCNS(=O)(=O)c1cc(/C=C/C(=O)O)ccc1OC | 198 to 200
O=c1ccccn1CCOc1ccc(Br)cc1 | 111 to 113
CCN(CC)C(=O)c1ccc(S(=O)(=O)Cl)cc1 | 59 to 61
NC(=S)Nc1ccc(Cl)nc1 | 182 to 184
Cn1cc(C(=O)O)c(=O)n(C)c1=O | 189 to 191
Cc1cc(Br)cc(C)c1S(=O)(=O)Cl | 49 to 51
O=[N+]([O-])c1ccc(NC2CCOc3ccccc32)cc1 (stereo unspecified) | 124 to 126
O=C(Nc1ccc(F)cc1)OCC(F)(F)F | 76 to 80
Cc1c(N)cccc1-c1nc2cc(F)ccc2n1C1CC1 | 131 to 133
Nc1ccccc1Oc1ccccc1N | 61 to 64
COc1ccc(C(C)=CC(=O)O)cc1 | 108 to 110
O=C(O)C1=COCCC1 | 71 to 73
N#Cc1ccc2c(c1)CCO2 | 64 to 66
N#CC=Cc1ccc(C(F)(F)F)cc1 | 89 to 91
Sc1nnc(C2CC2)n1Cc1ccco1 | 260 to 262
Nc1nc2ccccc2n1-c1ccc(F)cc1 | 164 to 166
O=C(O)c1cnn(-c2ccccn2)c1 | 186 to 188
CCOc1cc(Cl)ccc1C#N | 81 to 83
Nc1nonc1-c1ccc(Br)cc1 | 141 to 143
O=C(O)CCNS(=O)(=O)c1ccc(Br)cc1 | 161 to 163
NS(=O)(=O)c1cccc2cccnc12 | 183 to 185
CCOC(=O)c1ccc(S(N)(=O)=O)nc1 | 114 to 116
Cc1c(C(=O)O)oc2c(F)cccc12 | 236 to 238

SMILES | melting point [°C]
CCOC(=O)CN1CCN(S(=O)(=O)c2ccccc2)CC1 | 75 to 77
CCCCc1nnc(N)o1 | 139 to 141
O=C(c1cccnc1Cl)N1CCCC1 | 77 to 79
Cc1nc(S)c2c(=O)n(C)c(=O)n(CC(C)C)c2n1 | 172 to 174
NNC(=O)COc1ccc(OCc2ccccc2)cc1 | 142 to 144
Cn1nc[nH]c1=O | 169 to 171
COc1ccc(C#N)c(N)c1 | 91 to 93
Cc1ccc2[nH]c(-c3ccc(Br)cc3)c(CCC(=O)O)c2c1 | 101 to 103
Clc1noc(-c2ccccc2)n1 | 31 to 33
COc1cn(-c2cccc(C(F)(F)F)c2)nc1C(=O)O | 149 to 151
CC(CN(C)C(=O)OC(C)(C)C)C(N)=NO (stereo unspecified) | 124 to 126
Nc1ccc(NCc2ccccn2)cc1 | 89 to 91
O=C(C1=CNCCC1)c1ccccc1 | 90 to 92
CC(C)n1nnnc1-c1ccc(N)cc1F | 118 to 120
COC(=O)c1cc2c(Br)cccc2[nH]1 | 159 to 161
COc1ccc(C(C)=O)cc1Br | 82 to 84
Cc1ccc(NC(N)=O)cc1C | 170 to 172
CCOC(=O)c1c(-c2ccccc2Cl)csc1N | 65 to 73
OCc1cc(F)cc(CO)c1O | 119 to 121
CCOC(=O)c1ncn(-c2ccccc2)n1 | 49 to 51
COC(=O)c1ccc(OCC2CO2)cc1 (stereo unspecified) | 59 to 61
OCc1ccnc(-n2ccnc2)c1 | 155 to 157
CC(Oc1cc(Cl)cc(Cl)c1)C(=O)O (stereo unspecified) | 142 to 144
NC(=O)NCC(F)(F)F | 110 to 112
O=C1CC2(CCCCC2)CC(=O)O1 | 210 to 214

SMILES | melting point [°C]
CS(=O)(=O)c1cccc(O)c1 | 69 to 71
Nc1nc2ccc(SC(F)F)cc2s1 | 105 to 107
Nc1ccc(Cl)cc1-c1nc(C2CCCC2)no1 | 107 to 109
O=C1C=CC(=O)N1c1ccc2ccccc2c1 | 120 to 124
CS(=O)(=O)c1ccc(N)c(Br)c1 | 207 to 209
Fc1cc(Br)cc2c(Cl)cc(C(F)(F)F)nc12 | 91 to 93
O=S(=O)(O)c1ccc2[nH]cnc2c1 | 359 to 361
COc1ccc(-c2nc(CC(=O)O)cs2)cc1OC | 162 to 164
Sc1ccc2ccccc2n1 | 173 to 176
CC(C)(C)n1cc(C(=O)O)c(Br)n1 | 163 to 165
O=C(O)CC1COCCN1 (stereo unspecified) | 253 to 255
Cc1c(N)cccc1CS(C)(=O)=O | 149 to 151
O=C(Nc1cc[nH]n1)c1ccccc1 | 161 to 163
O=C(CBr)c1ccc(S(=O)(=O)N2CCCCCC2)cc1 | 70 to 72
ON=C1CCC1 | 82 to 84
Cc1sc(N)nc1-c1ccc(F)cc1 | 122 to 124
CC(C)Oc1ccc(C#N)cc1 | 50 to 52
CN1CC(=O)Nc2cc(Cl)ccc21 | 181 to 183
CN(C)Cc1cccc(N)c1 | 40 to 42
O=Cc1c[nH]nc1-c1ccc2c(c1)OCCO2 | 210 to 212
Cc1c(NC(C)C(C)C)cccc1C(=O)O (stereo unspecified) | 90 to 92
CS(=O)(=O)c1ccc(Cl)c(NC(=O)CCl)c1 | 148 to 149
O=C(O)c1ccc(Oc2ccc(Oc3ccccc3)cc2)nc1 | 152 to 154
CCOc1ccc(S(N)(=O)=O)cn1 | 133 to 135
Nc1cnn(-c2ccncc2)c1 | 152 to 154

SMILES | melting point [°C]
CC(C)Oc1ccc(NS(=O)(=O)CC(=O)O)cc1 | 116 to 118
Cc1ccc(CN(C)c2ccc(C(=O)O)cc2)cc1 | 177 to 179
CS(=O)(=O)c1ccc(Cl)c([N+](=O)[O-])c1 | 121 to 123
Fc1cc(CCl)c2c(c1)COC(c1ccsc1)O2 (stereo unspecified) | 77 to 79
N#Cc1ccc2c(n1)CCCC2 | 69 to 71
Cc1ccc(C(=O)O)c(O)c1O | 204 to 206
N#Cc1cc2ccccc2o1 | 33 to 35
Nc1cc(C(=O)N2CCCCC2)ccc1Cl | 135 to 137
Cc1nc(-c2ccc(N)cc2)co1 | 112 to 114
COC(=O)c1cc2c(F)cc(Br)cc2[nH]1 | 190 to 192
ON=Cc1ccc(OCc2ccccn2)cc1 | 154 to 156
CN(CC(=O)O)C1CC1 | 101 to 103
CCOC(=O)Cn1[nH]cc(C(=O)OCC)c1=N | 72 to 74
O=S(=O)(Cl)c1ccc2nc(Cl)sc2c1 | 98 to 100
CC(C)c1nc(C(=O)O)cs1 | 56 to 58
COCCOc1ccc(C(=O)O)cc1 | 151 to 153
Nc1cccc(NC(=O)CCn2ccnc2)c1 | 125 to 127
Nc1ccn(Cc2ccccn2)n1 | 88 to 90
Nc1cccc(CN2C(=O)CNC2=O)c1 | 159 to 161
Cc1cc2n(n1)CCC(=O)N2 | 221 to 223
O=C(O)C1CC1c1ccc(F)c(F)c1 (stereo unspecified) | 89 to 91
CC(C)c1nn(-c2ccccc2)cc1C(=O)O | 169 to 171
COc1ccc(OC)c(NC(=O)C(C)Cl)c1 (stereo unspecified) | 56 to 58
CCOC(=O)c1[nH]c(C)c(C(=O)OCC)c1CC | 108 to 110
CCCS(=O)(=O)Nc1ccccc1C(C)NC (stereo unspecified) | 58 to 60

SMILES | melting point [°C]
CCn1c(S)nc2ccccc21 | 135 to 137
Nc1onc(C2CCCC2)c1-c1ccc2c(c1)OCO2 | 122 to 124
CC(=O)N(c1cccc(C)c1)c1nc(CCl)cs1 | 117 to 119
NC(=O)c1cc(N)ccc1F | 137 to 139
CC(Cl)c1nnc(-c2ccc(Cl)c(Cl)c2)o1 (stereo unspecified) | 93 to 95
O=C(O)CCC(=O)c1cc(Cl)ccc1Cl | 97 to 99
Cc1cc(C)c2c(C(=O)O)cc(C3CC3)nc2c1 | 217 to 219
NCc1cccc(NC(=O)C2CCCC2)c1 | 86 to 88
COCCOc1ccc(C(C)=O)cc1 | 38 to 40
O=C1CCCCC1N1CCS(=O)(=O)CC1 (stereo unspecified) | 105 to 107
NCCNC(=O)c1ccc(Br)cc1 | 38 to 40
CC(=O)Nc1nc(C)c(S(=O)(=O)Cl)s1 | 158 to 160
Cc1nc(C)c(CCl)s1 | 62 to 64
NC(=S)c1cc(Br)cs1 | 199 to 201
CCNS(=O)(=O)c1ccc(C)c(C(=O)O)c1 | 181 to 183
NNC(=O)Nc1ccc(CCO)cc1 | 149 to 151
O=C(O)c1ccc(Br)cc1Oc1ccc(F)cc1 | 187 to 189
CCC(C)n1ncc(C(=O)O)c1C1CC1 (stereo unspecified) | 116 to 118
COC(=O)Cc1c(C)n[nH]c1C | 51 to 55
CC(=O)c1oc2ccccc2c1NC(=O)C(C)Cl (stereo unspecified) | 105 to 107
CCOc1ccc(C(C)=O)cc1CCl | 80 to 82
